Tests used:
Tubulin (Sus scrofa) [1] = assay: Induction of porcine brain tubulin polymerization at 2 uM relative to 25 uM epothilone B
MCF7 = assay: Antiproliferative activity against human MCF7 cells after 72 hrs; type: functional, cell-based; conditions: MCF7, 72 h
A549 = assay: Antiproliferative activity against human A549 cells after 72 hrs; type: functional, cell-based; conditions: A549, 72 h
Tubulin (Sus scrofa) [2] = assay: Induction of porcine brain tubulin polymerization at 5 uM relative to 25 uM epothilone B
[3] = Antiproliferative activity against human KB-3-1 cells after 72 hrs; type: functional, cell-based; conditions: KB 3-1, 72 h

| Structure (SMILES) | Activity (Tubulin (Sus scrofa) [1]) | IC50 (MCF7) | IC50 (A549) | Activity (Tubulin (Sus scrofa) [2]) | IC50 [3] |
| --- | --- | --- | --- | --- | --- |
| C/C(=C\c1csc(C)n1)[C@@H]1CC2O[C@@H]2CCC[C@H](C)[C@H](O)[C@@H](C)C(=O)C(C)(C)[C@@H](O)CC(=O)O1 (single isomer, unassigned) [EPOTHILONE A] | 83% | 2.6 nM | 2.2 nM | 89% | – |
| COC1=N[C@H]2CCC[C@H](C)[C@H](O)[C@@H](C)C(=O)C(C)(C)[C@@H](O)CC(=O)O[C@H](/C(C)=C/c3csc(C)n3)C[C@@H]2O1 | – | – | – | – | > 1000 nM |
| CC1=N[C@H]2CCC[C@H](C)[C@H](O)[C@@H](C)C(=O)C(C)(C)[C@@H](O)CC(=O)O[C@H](/C(C)=C/c3csc(C)n3)C[C@@H]2O1 | – | – | – | – | > 1000 nM |
| C/C(=C\c1csc(C)n1)[C@@H]1C[C@@H]2OC(c3ccc(C(C)(C)C)cc3)=N[C@H]2CCC[C@H](C)[C@H](O)[C@@H](C)C(=O)C(C)(C)[C@@H](O)CC(=O)O1 | 0% | > 10000 nM | > 10000 nM | 7% | – |

Further lines, with some results ahead:

| Activity (Tubulin (Sus scrofa) [1]) | IC50 (MCF7) | IC50 (A549) | Activity (Tubulin (Sus scrofa) [2]) | Structure (SMILES) | IC50 [3] |
| --- | --- | --- | --- | --- | --- |
| 71% | 1.9 nM | 2.9 nM | 88% | C/C(=C\c1csc(C)n1)[C@@H]1C[C@@H]2OC(c3ccc(C)cc3)=N[C@H]2CCC[C@H](C)[C@H](O)[C@@H](C)C(=O)C(C)(C)[C@@H](O)CC(=O)O1 | – |
| 14% | 5140 nM | 4870 nM | 15% | C/C(=C\c1csc(C)n1)[C@@H]1C[C@@H]2OC(c3ccc(C(C)C)cc3)=N[C@H]2CCC[C@H](C)[C@H](O)[C@@H](C)C(=O)C(C)(C)[C@@H](O)CC(=O)O1 | – |
| 65% | 19.2 nM | 16.4 nM | 80% | C/C(=C\c1csc(C)n1)[C@@H]1C[C@@H]2OC(c3ccccc3)=N[C@H]2CCC[C@H](C)[C@H](O)[C@@H](C)C(=O)C(C)(C)[C@@H](O)CC(=O)O1 | – |
| 78% | 1.3 nM | 0.92 nM | 93% | C/C(=C\c1csc(C)n1)[C@@H]1C[C@@H]2OC(c3cccnc3)=N[C@H]2CCC[C@H](C)[C@H](O)[C@@H](C)C(=O)C(C)(C)[C@@H](O)CC(=O)O1 | – |
| 32% | 297 nM | 378 nM | 36% | CCc1ccc(C2=N[C@H]3CCC[C@H](C)[C@H](O)[C@@H](C)C(=O)C(C)(C)[C@@H](O)CC(=O)O[C@H](/C(C)=C/c4csc(C)n4)C[C@@H]3O2)cc1 | – |

From ChEMBL document CHEMBL1151926, “Synthesis and SAR of C12-C13-oxazoline derivatives of epothilone A” (Bioorg Med Chem Lett, 2009)
